The structures appear in SMILES notation. Read-outs that look alike come from different tables or passages of the source.

The values below come from patent publication US9492471B2, “Methods of treating a disease or disorder associated with Bruton'S Tyrosine Kinase” (Celgene Avilomics Research, Inc., priority 2013, dated 2016).

Holding throughout (assay): HotSpot kinase profiling
What all share (format): biochemical

The target in one assay is T1, JNK3 (Homo sapiens, UniProt P53779).
T1 construct: purchased Reaction Biology Corp
T1 sequence (P53779 whole entry): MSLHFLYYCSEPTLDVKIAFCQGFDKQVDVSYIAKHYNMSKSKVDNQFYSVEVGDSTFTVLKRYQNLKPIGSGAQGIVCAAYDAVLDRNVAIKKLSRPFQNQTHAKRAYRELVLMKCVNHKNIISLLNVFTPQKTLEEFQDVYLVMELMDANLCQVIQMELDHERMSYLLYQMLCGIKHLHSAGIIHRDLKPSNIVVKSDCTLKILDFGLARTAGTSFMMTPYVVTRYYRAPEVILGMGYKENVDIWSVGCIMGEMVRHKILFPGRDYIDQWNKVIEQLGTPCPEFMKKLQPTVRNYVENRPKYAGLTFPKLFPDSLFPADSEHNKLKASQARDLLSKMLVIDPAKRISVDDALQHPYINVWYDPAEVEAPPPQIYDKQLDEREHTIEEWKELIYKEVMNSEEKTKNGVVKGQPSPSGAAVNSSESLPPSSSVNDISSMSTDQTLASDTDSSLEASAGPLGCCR
Put shortly:
(§1)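 Activity is measured by radiolabel transfer captured on P81 filters after a 2 h room-temperature reaction of kinase, substrate and cofactors. Values are percent inhibition against DMSO.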

In the next assay the target is T2, PAK2 (Homo sapiens, UniProt Q13177).
T2 construct: purchased Reaction Biology Corp
T2 sequence (Q13177 whole entry): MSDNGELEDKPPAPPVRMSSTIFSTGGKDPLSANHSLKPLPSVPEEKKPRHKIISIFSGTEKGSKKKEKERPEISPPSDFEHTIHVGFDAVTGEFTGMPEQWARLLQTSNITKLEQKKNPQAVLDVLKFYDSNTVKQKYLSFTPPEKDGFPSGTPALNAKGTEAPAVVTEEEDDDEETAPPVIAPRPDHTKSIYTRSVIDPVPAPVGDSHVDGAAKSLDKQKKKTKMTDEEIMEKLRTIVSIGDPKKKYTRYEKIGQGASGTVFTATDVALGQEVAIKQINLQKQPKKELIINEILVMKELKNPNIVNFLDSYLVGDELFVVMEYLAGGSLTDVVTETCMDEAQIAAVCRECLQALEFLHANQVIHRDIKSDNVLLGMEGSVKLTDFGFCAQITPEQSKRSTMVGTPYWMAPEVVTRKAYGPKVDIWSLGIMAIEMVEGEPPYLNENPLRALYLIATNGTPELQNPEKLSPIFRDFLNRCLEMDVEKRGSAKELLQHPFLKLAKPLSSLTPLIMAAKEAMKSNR
Put shortly:
as §1

Another assay addresses T3, TSSK3/STK22C (Homo sapiens, UniProt Q96PN8).
T3 construct: purchased Reaction Biology Corp
T3 sequence (Q96PN8 1-268): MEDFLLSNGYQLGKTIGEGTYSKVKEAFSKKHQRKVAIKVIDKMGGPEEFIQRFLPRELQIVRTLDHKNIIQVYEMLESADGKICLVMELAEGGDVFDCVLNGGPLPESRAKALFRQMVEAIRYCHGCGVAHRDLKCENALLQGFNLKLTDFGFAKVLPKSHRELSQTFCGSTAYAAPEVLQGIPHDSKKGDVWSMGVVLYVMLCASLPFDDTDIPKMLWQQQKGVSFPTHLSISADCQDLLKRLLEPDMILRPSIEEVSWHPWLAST
Put shortly:
as §1

Another assay concerns the target T4, IKKb/IKBKB (Homo sapiens, UniProt O14920).
T4 construct: purchased Reaction Biology Corp
T4 sequence (O14920 1-756): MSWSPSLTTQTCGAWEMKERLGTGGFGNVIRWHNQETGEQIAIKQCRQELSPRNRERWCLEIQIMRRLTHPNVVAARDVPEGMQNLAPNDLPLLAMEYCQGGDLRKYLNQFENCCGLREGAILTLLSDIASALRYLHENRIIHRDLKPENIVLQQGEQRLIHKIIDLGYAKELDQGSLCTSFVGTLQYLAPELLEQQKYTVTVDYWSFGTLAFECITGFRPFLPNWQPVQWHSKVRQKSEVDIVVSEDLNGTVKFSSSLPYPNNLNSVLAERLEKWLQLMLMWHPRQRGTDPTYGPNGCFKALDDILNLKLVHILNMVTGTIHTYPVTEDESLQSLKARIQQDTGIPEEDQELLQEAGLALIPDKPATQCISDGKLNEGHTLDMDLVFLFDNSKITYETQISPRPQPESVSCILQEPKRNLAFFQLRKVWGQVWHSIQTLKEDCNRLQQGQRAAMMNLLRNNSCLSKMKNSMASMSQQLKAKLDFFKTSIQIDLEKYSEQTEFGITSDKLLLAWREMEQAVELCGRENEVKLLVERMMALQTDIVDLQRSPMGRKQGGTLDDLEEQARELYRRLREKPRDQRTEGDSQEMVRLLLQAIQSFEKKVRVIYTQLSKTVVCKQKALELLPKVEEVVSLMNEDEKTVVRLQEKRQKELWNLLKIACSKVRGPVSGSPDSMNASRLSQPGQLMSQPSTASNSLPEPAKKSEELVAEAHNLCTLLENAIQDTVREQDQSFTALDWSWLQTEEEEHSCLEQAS
Put shortly:
as §1

Another assay has as its target T5, EPHA8 (Homo sapiens, UniProt P29322).
T5 construct: purchased Reaction Biology Corp
T5 sequence (P29322 28-1005): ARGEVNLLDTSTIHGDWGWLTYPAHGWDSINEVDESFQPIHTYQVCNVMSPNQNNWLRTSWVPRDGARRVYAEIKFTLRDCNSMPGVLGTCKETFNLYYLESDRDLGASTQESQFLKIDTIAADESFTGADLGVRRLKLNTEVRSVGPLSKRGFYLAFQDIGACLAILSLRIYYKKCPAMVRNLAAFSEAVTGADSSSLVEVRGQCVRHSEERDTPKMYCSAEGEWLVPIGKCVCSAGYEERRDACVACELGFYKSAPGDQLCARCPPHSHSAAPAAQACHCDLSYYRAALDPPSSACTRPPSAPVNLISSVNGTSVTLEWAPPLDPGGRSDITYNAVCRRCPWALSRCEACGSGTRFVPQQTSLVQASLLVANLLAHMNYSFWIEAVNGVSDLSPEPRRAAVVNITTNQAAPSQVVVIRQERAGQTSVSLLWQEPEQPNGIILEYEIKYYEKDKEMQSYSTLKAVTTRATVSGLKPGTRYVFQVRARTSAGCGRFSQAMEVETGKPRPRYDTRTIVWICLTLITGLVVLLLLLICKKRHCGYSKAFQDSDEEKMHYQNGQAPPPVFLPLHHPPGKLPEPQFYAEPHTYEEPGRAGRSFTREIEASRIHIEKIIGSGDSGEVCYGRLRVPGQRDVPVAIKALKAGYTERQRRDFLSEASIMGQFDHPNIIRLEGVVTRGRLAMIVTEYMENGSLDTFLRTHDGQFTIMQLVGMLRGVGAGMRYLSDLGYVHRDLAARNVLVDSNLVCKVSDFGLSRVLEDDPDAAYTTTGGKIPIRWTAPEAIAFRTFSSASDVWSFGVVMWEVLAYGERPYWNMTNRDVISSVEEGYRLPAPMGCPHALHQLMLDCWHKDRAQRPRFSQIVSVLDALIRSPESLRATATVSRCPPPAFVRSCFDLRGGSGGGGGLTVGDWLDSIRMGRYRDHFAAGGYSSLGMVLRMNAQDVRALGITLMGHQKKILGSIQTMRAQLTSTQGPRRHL
Put shortly:
as §1

The mark [1] stands for this setting: read-out: % Enzyme Activity (relative to DMSO controls) Run 1.
The mark [2] stands for this setting: read-out: % Enzyme Activity (relative to DMSO controls) Run 2.

One may read the inhibition as the relative decrease from the control value, in per cent. In the case of `C=CC(=O)Nc1cccc(Nc2nc(Nc3ccc(OCCOC)c(F)c3)ncc2F)c1` [Compound 2], the inhibition at 3 µM against JNK3 was -12.8%; at PAK2, 4.8%; against TSSK3/STK22C it was -32.6%; on IKKb/IKBKB, 3.75%; at EPHA8, 5.98%. Also, the remaining activity at 3 µM at JNK3 (setting [1]) came to 110%; on JNK3 (setting [2]) it was 116%; at PAK2 (setting [1]) it was 95.5%; at PAK2 (setting [2]), 94.9%; at TSSK3/STK22C (setting [1]) it was 133%; on TSSK3/STK22C (setting [2]) it was 133%. Besides, the remaining activity at 3 µM on IKKb/IKBKB (setting [1]) was found to be 95.4%; at IKKb/IKBKB (setting [2]), 97.1%; on EPHA8 (setting [1]) it was 94.2%; at EPHA8 (setting [2]) it was 93.8%.
